Results taken from patent US5939414A, “Benzodiazepine hydrazide derivatives as inhibitors of HIV integrase” (Merck & Co., Inc., priority 1997, dated 1999).

What was measured:
HIV integrase = target: T1, HIV integrase (Human immunodeficiency virus type 1 group M subtype B, UniProt P04585); experiment: Inhibition of strand transfer by HIV integrase; format: biochemical
T1 construct: HIV Integrase
Experimental: Assay for Inhibition of Strand Transfer by HIV Integrase
Inhibition of strand transfer was conducted according to Hazuda, D. J. et al. Nucleic Acids Res., 22, 1121 (1994), hereby incorporated by reference for these purposes.

HIV-1 integrase [1] = target: T2, HIV-1 integrase (Human immunodeficiency virus type 1 group M subtype B, UniProt P04585); experiment: Assembly of HIV-1 integrase as catalytically active complex; format: biochemical; set-up: HIV-1 Integrase
Experimental: Assay for Assembly of HIV-1 Integrase as Catalytically Active Complex
Inhibition of assembly of HIV-1 Integrase was conducted according to Wolfe, A. L. et al., J. Virol. 70, 1424 (1996), herein incorporated by reference for these purposes.

HIV-1 integrase [2] = target: T2, HIV-1 integrase; experiment: biochemical; set-up: HIV-1 integrase
Experimental: HIV Integrase Assay: Substrate Cleavage
An assay for trimming of 3' end of HIV long terminal repeat terminus by HIV-1 integrase was conducted according to LaFemina, E. R. et al., J. Virol. 10, 5624 (1991), herein incorporated by reference for these purposes. To assay inhibition of HIV integrase substrate cleavage, the reaction was conducted with inhibitor having various concentrations in the range of 0.1 to 100 μM.

Cc1[nH]cnc1C(=O)NNC1=Nc2ccc(Br)cc2C(c2ccccc2Cl)=NC1 [Compound VII]
IC50 (HIV integrase): 5 µM
IC50 (HIV-1 integrase [1]): 10 µM
IC50 (HIV-1 integrase [2]): 2 µM

O=C(NNC1=Nc2ccccc2C(c2ccccc2)=NC1)c1cnccn1 [Compound VI]
IC50 (HIV integrase): 2 to 3 µM
IC50 (HIV-1 integrase [1]): 5 µM
IC50 (HIV-1 integrase [2]): 2 µM
